Results published in patent US9950026B2, “Methods for reducing oxidative damage” (Cornell Research Foundation, Inc., priority 2004, dated 2018).
Entries after “also recorded” stand apart in the source; their conditions may differ. Where a SMILES comes first, the peptide text is derived from it. [ ]: non-standard residue; d: D form. Dmt = Cc1cc(O)cc(C)c1C[C@H](N)C(=O)O

Experiments:
[1] = Scavenging of H2O2, luminol-induced chemiluminescence; format: biochemical; conditions: H2O2 4.4 nmol, 20 min, 37° C.
Description: Effect of SS-02 and SS-05 (Dmt-D-Arg-Phe Orn-NH2) on H2O2 as measured by luminol-induced chemiluminescence, 25 μM luminol and 0.7 IU horseradish peroxidase were added to the solution of H2O2 (4.4 nmol) and peptide, and chemiluminescence was monitored with a Chronolog Model 560 aggregometer (Havertown, Pa.) for 20 min at 37° C.

[2] = system: Human LDL (low density lipoprotein); assay: LDL oxidation induced by CuSO4 (conjugated dienes); format: biochemical; conditions: for rate of LDL oxidation (rate of formation of conjugated dienes): peptides 100 μM
Description: Human LDL (low density lipoprotein) was prepared fresh from stored plasma. LDL oxidation was induced catalytically by the addition of […] CuSO4, and the formation of conjugated dienes was monitored at […] for 5 h at 37° C. (B. Moosmann and C. Behl, Mol Pharmacol., 61, 260-268 (2002)).

N2A cells [3] = assay: Cell viability, MTS assay, cells treated with tBHP; format: cell-based, murine; conditions: for EC50, increase of cell survival / cell survival (MTS): tBHP 0.5 or 1 mM 40 min, then peptide 4 hr
Description: (§1) Cells were washed twice and replaced with medium alone or medium containing varying concentrations of SS-02 or SS-31 for 4 hr. Intracellular ROS was measured by carboxy-H2DCFDA (Molecular Probes, Portland, Oreg.). Cell death was assessed by a cell proliferation assay (MTS assay, Promega, Madison, Wis.).
Neuronal N2A and SH-SY5Y cells were plated in 96-well plate at a density of 1×10^4/well and allowed to grow for 2 days before treatment with t-butyl hydroperoxide (tBHP) (0.05-0.1 mM) with or without SS-31 (10^−12 M to 10^−9 M for 24 h. Cell death was assessed by a cell proliferation assay (MTS assay, Promega, Madison, Wis.).

[4] = system: isolated mouse liver mitochondria; assay: H2O2 production by isolated mitochondria, luminol chemiluminescence; format: biochemical; conditions: for amount of H2O2 generated (AUC over 20 min): spontaneous, SS peptides 100 μM
Description: Because mitochondria are a major source of ROS production, the effect of SS-02 on H2O2 formation in isolated mitochondria under basal conditions as well as after treatment with antimycin, a complex III inhibitor was examined. Livers were harvested from mice and homogenized in ice-cold buffer and centrifuged at 13800×g for 10 m. The pellet was washed once and then re-suspended in 0.3 ml of wash butter and placed on ice until use H2O2 was measured using luminol chemiluminescence as described previously (Y. Li, H. Zhu, M. A. Trush, Biochim. Biophys. Acta 1428, 1-12 (1999)). 0.1 mg mitochondrial protein was added to 0.5 ml potassium phosphate buffer (100 mM, pH 8.0) in the absence or presence of SS peptides (100 μM). 25 mM luminol and 0.7 IU horseradish peroxidase were added, and chemilumunescence was monitored with a Chronolog Model 560 aggregometer (Havertown, Pa.) for 20 min at 37° C. The amount of H2O2 produced was quantified as the area under the curve (AUC) over 20 min, and all data were normalized to AUC produced by mitochondria alone.
H2O2 was measured using luminol chemiluminescence as described previously (Y, Li, H. Zhu, M. A. Trush, Biochim. Biophys. Acta 1428, 1-12 (1999)). 0.1 mg mitochondrial protein was added to 0.5 ml potassium phosphate buffer (100 mM, pH 8.0) in the absence or presence of SS-31. 25 mM luminol and 0.7 IU horseradish peroxidase were added, and chemilumunescence was monitored with a Chronolog Model 560 aggregometer (Havertown, Pa.) for 20 min at 37° C. The amount of H2O2 produced was quantified as the area under the curve (AUC) over 20 min, and all data were normalized to AUC produced by mitochondria alone.

[5] = Linoleic acid peroxidation induced by ABAP (conjugated dienes); conditions: for rate of linoleic acid peroxidation (slope of diene formation): peptides 100 μM
N2A cells [6] = assay: Intracellular ROS (DCF fluorescence) in cells treated with tBHP; format: cell-based, murine; conditions: for EC50, reduction of intracellular ROS / intracellular ROS: tBHP 0.5 or 1 mM 40 min, then peptide 4 hr
Description: FIG. 22A-22C. […] (A) N2A cells were loaded with DCFDA, and then exposed to 100 μM tBHP alone, or with SS-31. Intracellular ROS was quantified by the formation of fluorescent DCF. Results shown are mean values (n=3). (B)(a-c) N2A cells were plated in glass bottom dishes and treated with 50 μM tBHP, alone or with 1 nM SS-31, for 6 h. Cells were loaded with DCFDA (10 μM) and imaged by confocal laser scanning microscopy using ex/em of 495/525 nm. (C) Effect of 1 nM SS-31 in reducing intracellular ROS induced by 50 μM tBHP (*P<0.001 compared to untreated cells; *P<0.05 compared to tBHP alone).
as §1
Intracellular ROS was evaluated using the fluorescent probe DCFH-DA (5-(and -6)-carboxy-2′,7′-dichlorodihydrofluorescein diacetate). DCFH-DA enters cells passively and is then deacetylated to nonfluorescent DCFH. DCFH reacts with ROS to form DCF, the fluorescent product. N2A cells in 96 sell plates were washed with HBSS and loaded with 10 μM of DCFDA for 30 min. […]. at 37° C. Cells were washed 3 times with BSS and exposed to 0.1 mM of t-BHP, alone or with SS-31. The oxidation of DCF was monitored in real time by a fluorescence microplate reader (Molecular Devices) using 485 nm for excitation and 530 nm for emission.
N2A cells in glass bottom dish were treated with 0.1 mM t-BHP, alone or with 1 nM SS-31, for 6 h. Cells were then loaded with 10 μm of dichlorofluorescin (ex/em=485/530) for 30 min at 37° C., 5% CO2. Then cells were subjected 3 times wash with HBSS and stained with 20 nM of Mitotracker TMRM (ex/em=550/575 nm) for 15 min at 37° C. and examined by confocal laser scanning microscopy.

[7] = system: isolated guinea pig hearts; assay: HNE-modified proteins in isolated hearts, brief ischemia-reperfusion (Langendorff); conditions: 100 nM SS-02, 1 nM SS-31
Description: Isolated guinea pig hearts were perfused in a retrograde manner in a Langendorff apparatus and subjected to various intervals of ischemia-reperfusion. Hearts were then fixed immediately and embedded in paraffin. Immunohistochemical analysis of 4-hydroxy-2-nonenol (HNE)-modified proteins in the paraffin sections was carried out using an anti-HNE antibody.
(A) Immunohistochemical analysis of 4-hydroxy-2-nonenol (HNE)-modified proteins in paraffin sections from guinea pig hearts aerobically perfused 30 min with (a) buffer; (b) 100 nM SS-02; (c) 100 nM SS-20 and (d) 1 nM SS-31, then subjected to 30 min ischemia and reperfused for 90 min with same peptides. Tissue slices were incubated with […] antibody. (e) Background control: staining without primary antibody.
(B) Immunohistochemical analysis of HNE-modified proteins in paraffin sections from guinea pig hearts aerobically perfused 30 min with buffer; then subjected to 30 min ischemia and reperfused with (a) buffer; (b) 100 nM SS-02; (c) 100 nM SS-20 and (d) 1 nM SS-31 for 90 min with same peptides. Tissue slices were incubated with anti-HNE antibody. (e) Background control staining without primary antibody.

[8] = peptide only during 90 min reperfusion
[9] = peptide perfused 30 min before 30 min ischemia and during 90 min reperfusion

For 2′,6′-Dmt-Arg-Phe-Lys-NH2 [SS-02], the “luminol response (H2O2 scavenging)” value [1] was “dose-dependently inhibited”, the “rate of LDL oxidation (rate of formation of conjugated dienes)” value [2] was “reduced rate of LDL oxidation” and the “rate of LDL oxidation” value ([2]; varying concentrations, 10 mM CuSO4) was “dose-dependently inhibited”. For the same molecule, the “EC50, increase of cell survival” value (N2A cells [3]) was “nM range”, the “cell survival (MTS)” value (N2A cells [3]) was “increased cell survival” and the “amount of H2O2 generated (AUC over 20 min)” value [4] was “significantly reduced”. For the same molecule, the “rate of linoleic acid peroxidation (slope of diene formation)” value [5] was “reduced the rate of linoleic acid peroxidation”, the “peroxidation of linoleic acid” value ([5]; varying concentrations) was “dose-dependently inhibited” and the “EC50, reduction of intracellular ROS” value (N2A cells [6]) was “nM range”. The “intracellular ROS” value (N2A cells [6]) was “dose-dependently reduced intracellular ROS”, the “lipid peroxidation (HNE-modified proteins)” value (“lipid peroxidation” for short) [7, 8] was “reduced lipid peroxidation” and the “lipid peroxidation” value [7, 9] was “reduced lipid peroxidation”.
For `Cc1cc(O)cc(C)c1C[C@H](NC(=O)[C@H](N)CCCNC(=N)N)C(=O)N[C@@H](CCCCN)C(=O)N[C@@H](Cc1ccccc1)C(N)=O` [SS-31, D-Arg-2′6′-Dmt-Lys-Phe-NH2] (H-[dR][Dmt]KF-NH2; N-terminus assumed), the “rate of LDL oxidation (rate of formation of conjugated dienes)” value [2] was “reduced rate of LDL oxidation”, the “concentration achieving complete protection against t-BHP” value (N2A cells [3]; t-BHP 0.05-0.1 mM, 24 h) was 1 nM and the t-BHP-induced cytotoxicity (N2A cells [3]; t-BHP 0.05-0.1 mM, 24 h, concurrent treatment) was “dose-dependent reduction”. For the same molecule, the “EC50, increase of cell survival” value (N2A cells [3]) was “nM range”, the “cell survival (MTS)” value (N2A cells [3]) was “increased cell survival” and the “production of H2O2 induced by antimycin” value ([4]; dose response) was “dose-dependently reduced”. The “spontaneous production of H2O2” value ([4]; dose response) was “dose-dependently reduced”, the “amount of H2O2 generated (AUC over 20 min)” value [4] was “significantly reduced” and the “rate of linoleic acid peroxidation (slope of diene formation)” value [5] was “reduced the rate of linoleic acid peroxidation”. The “DCF fluorescence (fluorescent microscopy)” value (N2A cells [6]; 50 μM tBHP, 1 nM SS-31, 6 h) was “significantly reduced”, the “reduction of ROS production” value (N2A cells [6]; 100 μM tBHP, 1 nM SS-31) was over 50% and the “rate of ROS accumulation/production” value (N2A cells [6]; 0.1 mM (100 μM) t-BHP, over 4 h) was “dose-dependently inhibited; also recorded: dose-dependently reduced”. The “ROS accumulation (DCF fluorescence, confocal)” value (N2A cells [6]; 0.1 mM t-BHP, 1 nM SS-31, 6 h) was “reduced ROS accumulation”, the “EC50, reduction of intracellular ROS” value (N2A cells [6]) was “nM range” and the “intracellular ROS” value (N2A cells [6]) was “dose-dependently reduced intracellular ROS”. For the same molecule, the “lipid peroxidation” value [7, 8] was “reduced lipid peroxidation” and the “lipid peroxidation” value [7, 9] was “reduced lipid peroxidation”.
